From ChEMBL document CHEMBL4145553, “Design, synthesis, and biological evaluation of novel amide and hydrazide based thioether analogs targeting Histone deacteylase (HDAC) enzymes” (Eur J Med Chem, 2018)

Assays:
[1] = system: OVCAR-3; assay: Growth inhibition of human OVCAR3 cells assessed as cell growth at 10^-4 M incubated for 48 hrs by sulforhodamine B assay relative to control; format: functional; details: OVCAR-3, 48 h, read-out: Activity
[2] = system: SK-OV-3; assay: Growth inhibition of human SKOV3 cells assessed as cell growth at 10^-7 M incubated for 48 hrs by sulforhodamine B assay relative to control; format: functional; details: SK-OV-3, 48 h, read-out: Activity
[3] = system: A498; assay: Growth inhibition of human A498 cells assessed as cell growth at 10^-8 M incubated for 48 hrs by sulforhodamine B assay relative to control; format: functional; details: A498, 48 h, read-out: Activity
[4] = system: HL-60; assay: Induction of apoptosis in human HL60 cells assessed as late apoptotic cells by propidium iodide/Annexin V staining based flow cytometry (reference value: 0.54%); format: functional
[5] = system: SW-620; assay: Growth inhibition of human SW620 cells assessed as cell growth at 10^-4 M incubated for 48 hrs by sulforhodamine B assay relative to control; format: functional; details: SW-620, 48 h, read-out: Activity
[6] = system: NCI/ADR-RES; assay: Growth inhibition of human NCI/ADR-RES cells incubated for 48 hrs by sulforhodamine B assay; format: functional
[7] = system: CAKI-1; assay: Growth inhibition of human Caki1 cells assessed as cell growth at 10^-8 M incubated for 48 hrs by sulforhodamine B assay relative to control; format: functional; details: CAKI-1, 48 h, read-out: Activity
[8] = system: U-251; assay: Growth inhibition of human U251 cells incubated for 48 hrs by sulforhodamine B assay; format: functional; details: U-251, 48 h
[9] = system: U-251; assay: Growth inhibition of human U251 cells assessed as cell growth at 10^-5 M incubated for 48 hrs by sulforhodamine B assay relative to control; format: functional; details: U-251, 48 h, read-out: Activity
[10] = system: SF-268; assay: Growth inhibition of human SF268 cells assessed as cell growth at 10^-6 M incubated for 48 hrs by sulforhodamine B assay relative to control; format: functional; details: SF-268, 48 h, read-out: Activity
[11] = system: SNB-19; assay: Growth inhibition of human SNB19 cells assessed as cell growth at 10^-5 M incubated for 48 hrs by sulforhodamine B assay relative to control; format: functional; details: SNB-19, 48 h, read-out: Activity
[12] = system: MDA-MB-435; assay: Cell cycle arrest in human MDA-MB-435 cells assessed as accumulation at G1-phase by propidium iodide staining based flow cytometry (reference value: 69.15%); format: functional
[13] = system: SF-295; assay: Growth inhibition of human SF295 cells incubated for 48 hrs by sulforhodamine B assay; format: functional; details: SF-295, 48 h
[14] = target: Histone deacetylase 1 (Homo sapiens, UniProt Q13547); assay: Inhibition of human HDAC1 by ELISA
[15] = system: SK-MEL-2; assay: Growth inhibition of human SK-MEL-2 cells assessed as cell growth at 10^-5 M incubated for 48 hrs by sulforhodamine B assay relative to control; format: functional; details: SK-MEL-2, 48 h, read-out: Activity
[16] = system: OVCAR-8; assay: Growth inhibition of human OVCAR8 cells assessed as cell growth at 10^-8 M incubated for 48 hrs by sulforhodamine B assay relative to control; format: functional; details: OVCAR-8, 48 h, read-out: Activity
[17] = system: MDA-MB-435; assay: Growth inhibition of human MDA-MB-435 cells assessed as cell growth at 10^-5 M incubated for 48 hrs by sulforhodamine B assay relative to control; format: functional; details: MDA-MB-435, 48 h, read-out: Activity
[18] = system: NCI-H23; assay: Growth inhibition of human NCI-H23 cells assessed as cell growth at 10^-6 M incubated for 48 hrs by sulforhodamine B assay relative to control; format: functional; details: NCI-H23, 48 h, read-out: Activity
[19] = system: U-251; assay: Growth inhibition of human U251 cells assessed as cell growth at 10^-8 M incubated for 48 hrs by sulforhodamine B assay relative to control; format: functional; details: U-251, 48 h, read-out: Activity
[20] = system: SK-MEL-5; assay: Growth inhibition of human SK-MEL-5 cells assessed as cell growth at 10^-8 M incubated for 48 hrs by sulforhodamine B assay relative to control; format: functional; details: SK-MEL-5, 48 h, read-out: Activity
[21] = system: MDA-MB-435; assay: Induction of apoptosis in human MDA-MB-435 cells assessed as necrotic cells by propidium iodide/Annexin V staining based flow cytometry (reference value: 0.24%); format: functional
[22] = system: SNB-19; assay: Growth inhibition of human SNB19 cells assessed as cell growth at 10^-8 M incubated for 48 hrs by sulforhodamine B assay relative to control; format: functional; details: SNB-19, 48 h, read-out: Activity
[23] = system: MDA-MB-468; assay: Growth inhibition of human MDA-MB-468 cells incubated for 48 hrs by sulforhodamine B assay; format: functional; details: MDA-MB-468, 48 h
[24] = system: CCRF-CEM; assay: Growth inhibition of human CCRF-CEM cells assessed as cell growth at 10^-6 M incubated for 48 hrs by sulforhodamine B assay relative to control; format: functional; details: read-out: Activity
[25] = system: SF-268; assay: Growth inhibition of human SF268 cells assessed as cell growth at 10^-7 M incubated for 48 hrs by sulforhodamine B assay relative to control; format: functional; details: SF-268, 48 h, read-out: Activity
[26] = system: LOX IMVI; assay: Growth inhibition of human LOXIMVI cells incubated for 48 hrs by sulforhodamine B assay; format: functional
[27] = system: T47D; assay: Growth inhibition of human T47D cells assessed as cell growth at 10^-5 M incubated for 48 hrs by sulforhodamine B assay relative to control; format: functional; details: read-out: Activity
[28] = target: Histone deacetylase 8 (Homo sapiens, UniProt Q9BY41); assay: Inhibition of HDAC8 (unknown origin) by ELISA
[29] = system: A498; assay: Growth inhibition of human A498 cells assessed as cell growth at 10^-4 M incubated for 48 hrs by sulforhodamine B assay relative to control; format: functional; details: A498, 48 h, read-out: Activity
[30] = system: SF-539; assay: Growth inhibition of human SF539 cells incubated for 48 hrs by sulforhodamine B assay; format: functional; details: SF-539, 48 h
[31] = read-out: LC50 (the source's name)
[32] = read-out: pLC50 (the source's name) (converted)

Sequence of Histone deacetylase 8 (Q9BY41 whole entry): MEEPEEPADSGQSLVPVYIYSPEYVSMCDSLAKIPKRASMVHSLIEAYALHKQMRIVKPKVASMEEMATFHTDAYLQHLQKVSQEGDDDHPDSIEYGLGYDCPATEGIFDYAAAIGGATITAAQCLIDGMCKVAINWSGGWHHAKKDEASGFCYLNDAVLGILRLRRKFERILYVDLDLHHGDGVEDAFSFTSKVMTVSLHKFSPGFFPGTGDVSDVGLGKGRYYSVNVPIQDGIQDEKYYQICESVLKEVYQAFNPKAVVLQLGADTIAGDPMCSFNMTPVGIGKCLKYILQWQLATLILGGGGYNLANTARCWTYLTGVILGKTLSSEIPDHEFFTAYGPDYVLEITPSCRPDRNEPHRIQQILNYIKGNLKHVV
Sequence of Histone deacetylase 1 (Q13547 whole entry): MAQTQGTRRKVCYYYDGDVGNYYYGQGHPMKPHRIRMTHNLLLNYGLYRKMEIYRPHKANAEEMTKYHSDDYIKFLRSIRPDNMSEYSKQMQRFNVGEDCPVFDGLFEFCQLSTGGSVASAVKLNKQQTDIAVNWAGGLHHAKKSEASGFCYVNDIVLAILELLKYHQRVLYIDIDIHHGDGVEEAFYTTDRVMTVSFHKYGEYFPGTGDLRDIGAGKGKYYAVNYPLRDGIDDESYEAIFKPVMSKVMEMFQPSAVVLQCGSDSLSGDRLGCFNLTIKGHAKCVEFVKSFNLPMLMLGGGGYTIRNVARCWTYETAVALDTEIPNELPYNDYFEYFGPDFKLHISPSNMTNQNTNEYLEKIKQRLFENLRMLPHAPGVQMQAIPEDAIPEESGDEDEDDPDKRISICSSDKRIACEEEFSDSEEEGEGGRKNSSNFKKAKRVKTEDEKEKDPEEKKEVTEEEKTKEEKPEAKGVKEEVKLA

CCS/C(Nc1ccccc1)=C(\C#N)C(=O)N/N=C\c1ccc(Cl)cc1Cl
growth at 100 µM [1]: -23%
growth at 0.1 µM [2]: 86%
growth at 0.01 µM [3]: 91%
Activity [4]: 8.54%
growth at 100 µM [5]: 25%
GI50 ([6]; read-out: GI50): 3160 nM
CC50 [6, 31]: > 100 µM
TGI ([6]; read-out: TGI): > 100 µM
GI50 ([6]; read-out: pGI50 (converted)): 3160 nM
CC50 [6, 32]: > 100 µM
TGI ([6]; read-out: pTGI): > 100 µM
growth at 0.01 µM [7]: 94%
GI50 ([8]; read-out: GI50): 3.95 µM
CC50 [8, 31]: > 100 µM
TGI ([8]; read-out: TGI): > 100 µM
GI50 ([8]; read-out: pGI50 (converted)): 3.98 µM
CC50 [8, 32]: > 100 µM
TGI ([8]; read-out: pTGI): > 100 µM
growth at 10 µM [9]: 20%
growth at 1 µM [10]: 87%
growth at 10 µM [11]: 28%
Activity [12]: 61.56%
GI50 ([13]; read-out: GI50): 2890 nM
CC50 [13, 31]: > 100 µM
TGI ([13]; read-out: TGI): > 100 µM
GI50 ([13]; read-out: pGI50 (converted)): 2880 nM
CC50 [13, 32]: > 100 µM
TGI ([13]; read-out: pTGI): > 100 µM
IC50 [14]: 70 nM
growth at 10 µM [15]: 16%
growth at 0.01 µM [16]: 94%
growth at 10 µM [17]: -53%
growth at 1 µM [18]: 90%
growth at 0.01 µM [19]: 101%
growth at 0.01 µM [20]: 101%
Activity [21]: 0.89%
growth at 0.01 µM [22]: 97%
GI50 ([23]; read-out: GI50): 2600 nM
CC50 [23, 31]: > 100 µM
TGI ([23]; read-out: TGI): 9.19 µM
GI50 ([23]; read-out: pGI50 (converted)): 2630 nM
CC50 [23, 32]: > 100 µM
TGI ([23]; read-out: pTGI (converted)): 9.12 µM
growth at 1 µM [24]: 82%
growth at 0.1 µM [25]: 94%
GI50 ([26]; read-out: GI50): 5.88 µM
CC50 [26, 31]: > 100 µM
TGI ([26]; read-out: TGI): > 100 µM
GI50 ([26]; read-out: pGI50 (converted)): 5.89 µM
CC50 [26, 32]: > 100 µM
TGI ([26]; read-out: pTGI): > 100 µM
growth at 10 µM [27]: 24%
IC50 [28]: 202 nM
growth at 100 µM [29]: -2%
GI50 ([30]; read-out: GI50): 2890 nM
CC50 [30, 31]: > 100 µM
TGI ([30]; read-out: TGI): 20.6 µM
GI50 ([30]; read-out: pGI50 (converted)): 2880 nM
CC50 [30, 32]: > 100 µM
TGI ([30]; read-out: pTGI (converted)): 20.4 µM

CCS/C(Nc1ccccc1)=C(\C#N)C(=O)Nc1ccc(OC)cc1
growth at 100 µM [1]: -15%
growth at 0.1 µM [2]: 88%
growth at 0.01 µM [3]: 91%
Activity [4]: 7.19%
growth at 100 µM [5]: 14%
GI50 ([6]; read-out: GI50): 2620 nM
CC50 [6, 31]: > 100 µM
TGI ([6]; read-out: TGI): > 100 µM
GI50 ([6]; read-out: pGI50 (converted)): 2630 nM
CC50 [6, 32]: > 100 µM
TGI ([6]; read-out: pTGI): > 100 µM
growth at 0.01 µM [7]: 90%
GI50 ([8]; read-out: GI50): 4.42 µM
CC50 [8, 31]: > 100 µM
TGI ([8]; read-out: TGI): > 100 µM
GI50 ([8]; read-out: pGI50 (converted)): 4.47 µM
CC50 [8, 32]: > 100 µM
TGI ([8]; read-out: pTGI): > 100 µM
growth at 10 µM [9]: 26%
growth at 1 µM [10]: 90%
growth at 10 µM [11]: 22%
Activity [12]: 51.68%
GI50 ([13]; read-out: GI50): 3060 nM
CC50 [13, 31]: > 100 µM
TGI ([13]; read-out: TGI): > 100 µM
GI50 ([13]; read-out: pGI50 (converted)): 3090 nM
CC50 [13, 32]: > 100 µM
TGI ([13]; read-out: pTGI): > 100 µM
IC50 [14]: 38 nM
growth at 10 µM [15]: 11%
growth at 0.01 µM [16]: 100%
growth at 10 µM [17]: -49%
growth at 1 µM [18]: 85%
growth at 0.01 µM [19]: 97%
growth at 0.01 µM [20]: 98%
Activity [21]: 1.63%
growth at 0.01 µM [22]: 98%
GI50 ([23]; read-out: GI50): 1390 nM
CC50 [23, 31]: > 100 µM
TGI ([23]; read-out: TGI): 7.51 µM
GI50 ([23]; read-out: pGI50 (converted)): 1380 nM
CC50 [23, 32]: > 100 µM
TGI ([23]; read-out: pTGI (converted)): 7.59 µM
growth at 1 µM [24]: 64%
growth at 0.1 µM [25]: 97%
GI50 ([26]; read-out: GI50): 6.16 µM
CC50 [26, 31]: > 100 µM
TGI ([26]; read-out: TGI): > 100 µM
GI50 ([26]; read-out: pGI50 (converted)): 6.17 µM
CC50 [26, 32]: > 100 µM
TGI ([26]; read-out: pTGI): > 100 µM
growth at 10 µM [27]: 25%
IC50 [28]: 295 nM
growth at 100 µM [29]: -12%
GI50 ([30]; read-out: GI50): 1960 nM
CC50 [30, 31]: 52.9 µM
TGI ([30]; read-out: TGI): 4.81 µM
GI50 ([30]; read-out: pGI50 (converted)): 1950 nM
CC50 [30, 32]: 52.5 µM
TGI ([30]; read-out: pTGI (converted)): 4.79 µM
